Values quoted from earlier work in patent US20100048679A1, “POLYNUCLEOTIDE THERAPY” (Bayhill Therapeutics, Inc., priority 2006, published 2010).
Read-outs that look alike come from different tables or passages of the source.

System: patients

Row | Molecule | Significant side effects (MS patients, literature) | Significant side effects (in vivo)
1 | O=C1c2c(O)ccc(O)c2C(=O)c2c(NCCNCCO)ccc(NCCNCCO)c21 [mitoxantrone] | myelosuppression with increased risk for infections | –
2 | natalizumab [Tysabri] | decreases lymphocyte trafficking | –
3 | glatiramer acetate | – | allergic reactions
4 | interferon β | flu-like symptoms | –
